Molecules are shown by their SMILES.

Assay [1] concerns human PMNs stimulated by IL-8. Briefly: Chemotaxis of human PMNs stimulated by IL-8 (48-well microchamber). Format: cell-based. The conditions noted are these: for % inhibition of leucocyte chemotaxis: Table 3, diastereoisomers of ibuprophenoyl-alanine; for activity on chemotaxis induced by IL-8, in words: Tables 1 and 2. The method, then: For in vitro evaluation of the compounds of the invention, polymorphonucleated leucocytes were used (hereinafter referred to as PMNs) isolated from heparinized human blood, taken from consenting healthy adults, by means of sedimentation on dextrane; the mononucleated cells were removed by means of Ficoll/Hypaque, whilst the red blood cells were eliminated by treatment with hypotonic solutions. The cell vitality of the PMNs was calculated by exclusion with Tripan blue, whilst the percentage of PMNs on the cytocentrifugate was estimated after staining with Diff Quinck., in accordance with the procedure described by W. J. Ming et al., J. Immunol., 138, 1469, 1987. In each of the experiments, which will be described in details below, the pre-incubations were carried out at a temperature of 37° C., observing incubation times of 10 minutes with the compounds under examination.
In the chemotaxis experiments and in those aimed at measuring the cytosol levels of the Ca^++ ion, recombinant human interleukin-8 (rhIL-8, Pepro Tech) was used; the lyophilized protein was dissolved in HBSS (Hank's balanced salts solution) at the concentration of 100 mcg/mL, and then diluted down to a concentration of 10 ng/mL in the chemotaxis experiments, to that a concentration of 25-50 ng/mL in the evaluation of the intracellular modifications of Ca^2+ (i.e. [Ca^2+]i) and to that a concentration of 400 ng/ml in the evaluation of tyrosine kinase activation.
During the chemotaxis assay (according to W. Falket et al., J. Immunol. Methods, 33, 239, 1980) PVP-free filters were used having a porosity of 5 mcm and microchambers made of plexiglas suitable for carrying out the replication.
The compounds being studied were added at one and the same concentration in the top-level wells that contained the suspension of PMNs, and in the wells of the bottom level that contained the vehicle to which IL-8 (or, if so desired, another stimulating agent) was added or otherwise.

In assay [2] the test system is TNF-α. The assay can be described thus: TNF-α production in murine macrophages stimulated by LPS or H2O2. The assay is classed as cell-based. As to conditions: stimulated in murine macrophages by H2O2 and by liposaccharides.
The subject of another assay is PGE2. The assay can be described thus: PGE2 synthesis in murine macrophages stimulated with lipopolysaccharides. The assay is classed as cell-based. As to conditions: after stimulation with LPSs at 1 μg/mL.
Assay [3] has as its system TNF-α. As to conditions: in the presence of LPSs and of S-ketoprofen 10^−5 M; LPSs alone 10±5 ng/mL; cited from earlier work.
[4] abbreviates: Table 2, compounds 10^−8 M, IL-8 10 ng/mL.
Where [5] appears, read: Table 1, compound conc. 10^−8 M, IL-8 10 ng/mL.

On to `Cc1ccnc(NC(=O)[C@H](C)c2cccc(C(=O)c3ccccc3)c2)c1` [R(−)-2-[(5′-benzoyl)phenyl]-N-(4″methyl-2″-pyridyl)propionamide, reference compound], for which the “% inhibition of chemotaxis of human PMNs stimulated by IL-8 (10 ng/mL)” value (“% inhibition of chemotaxis … (10 ng/mL)” below) in assay [1] (Table 4, IL-8 10 ng/mL) was −15 ± 25%.

As for `CC(C)Cc1ccc([C@H](C)C(=O)N[C@H](C)C(=O)O)cc1` [S,D, reference compound], the “% inhibition of leucocyte chemotaxis” value in assay [1] is reported as 4 ± 19%.

As for `CC(C)Cc1ccc([C@@H](C)C(=O)Nc2ccncc2)cc1` [Compound 12], the “% inhibition of chemotaxis … (10 ng/mL)” value in assay [1] (setting [4]) turned out to be 61 ± 8%. Moreover, the “activity on chemotaxis induced by IL-8, in words” value (“activity on chemotaxis induced” for short) in assay [1] is on record as “good activity”.

Take `CNC(=O)[C@H](C)c1ccc(CC(C)C)cc1` [Compound 2, R(−)-2-(4′-isobutyl)phenyl-N-methyl propionamide]: the “% inhibition of chemotaxis … (10 ng/mL)” value in assay [1] (setting [4]) came out at 25 ± 9%. Moreover, the “% inhibition of leucocyte chemotaxis stimulated by IL-8 (10 ng/mL)” value in assay [1] (concentration of 10^−8 M) is 25±9%. Further, the “production of TNF-α” value in the assay with TNF-α [2] is given as “down-regulate the production of TNF-α”. The “synthesis of PGE2 in the macrophages” value in the assay with PGE2 is reported as “do not inhibit”.

For `CC(C)Cc1ccc([C@@H](C)C(=O)NCC(=O)O)cc1` [Compound 4, R(−)-2-[(4′-isobutyl)phenyl]-N-carboxymethyl propionamide], the “% inhibition of chemotaxis … (10 ng/mL)” value in assay [1] (setting [4]) is 45 ± 8%. In assay [1], the “activity on chemotaxis induced” value is “inhibitory effect on chemotaxis”.

As to `CC(C)Cc1ccc([C@@H](C)C(=O)N[C@@H](C)C(=O)O)cc1` [Compound 5], in assay [1] (IL-8 10 ng/mL, concentration range from 10^−8 to 10^−10 M), the “inhibition of chemotaxis induced by IL-8, dose dependence” value is on record as “inhibits, in a dose-dependent way”. Further, in assay [1] (setting [4]), the “% inhibition of chemotaxis … (10 ng/mL)” value is reported as 65 ± 9%. Besides, in assay [1], the “% inhibition of leucocyte chemotaxis” value amounted to 65 ± 9% and the “activity on chemotaxis induced” value is “marked “pro-kinetic” paradox effect”.

As to `CC(C)Cc1ccc([C@@H](C)C(=O)N[C@@H](CO)C(=O)O)cc1` [Compound 7], in assay [1] (setting [4]), the “% inhibition of chemotaxis … (10 ng/mL)” value is listed as 12 ± 4%. The “activity on chemotaxis induced” value in assay [1] was “decrease in the biological activity”.

`Cc1ccnc(NC(=O)[C@@H](C)c2ccc(CC(C)C)cc2)c1` [S(+)-2-[(4′-isobutyl)phenyl]-N-(4″-methyl-2″-pyridyl)propionamide, reference compound]: the “% inhibition of chemotaxis … (10 ng/mL)” value in assay [1] (Table 4, IL-8 10 ng/mL) is −3 ± 5%.

For `CC(C)Cc1ccc([C@H](C)C(N)=O)cc1` [(S)-2-(4-isobutyl-phenyl)-propionamide, reference compound], the “% inhibition of chemotaxis … (10 ng/mL)” value in assay [1] (setting [5]) is given as −2 ± 8%. The “activity on chemotaxis induced” value in assay [1] is recorded as “altogether absent”.

`CC(C)Cc1ccc([C@@H](C)C(=O)NCCOCCO)cc1` [Compound 8, R(−)-2-[(4′-isobutyl)phenyl]-N-(2″-hydroxyethoxyethyl)propionamide]: in assay [1] (setting [4]), the “% inhibition of chemotaxis … (10 ng/mL)” value is listed as 40 ± 4%. In assay [1], the “activity on chemotaxis induced” value is reported as “restored”.

In the case of `Cc1ccnc(NC(=O)[C@@H](C)c2cccc(C(=O)c3ccccc3)c2)c1` [S(+)-2-[(5′-benzoyl)phenyl]-N-(4″-methyl-2″-pyridyl)propionamide, reference compound], the “% inhibition of chemotaxis … (10 ng/mL)” value in assay [1] (Table 4, IL-8 10 ng/mL) is recorded as −1 ± 10%.

On to `CC(C)Cc1ccc([C@@H](C)C(=O)NCCO)cc1` [Compound 3, R(−)-2-(4′-isobutyl)phenyl-N-(2′-hydroxyethyl)propionamide], for which, in assay [1] (setting [4]), the “% inhibition of chemotaxis … (10 ng/mL)” value is on record as 20 ± 11%. For the same compound, the “activity on chemotaxis induced” value in assay [1] was “decrease in the biological activity”.

Take `CC(C)Cc1ccc([C@H](C)C(=O)N[C@@H](C)C(=O)O)cc1` [S,L, reference compound]: in assay [1], the “% inhibition of leucocyte chemotaxis” value was 4 ± 13%.

On to `CC(C)Cc1ccc([C@@H](C)C(=O)Nc2ccccn2)cc1` [Compound 10, R(−)-2-(4′-isobutyl)phenyl-N-(2′-pyridyl)propionamide], for which the “% inhibition of chemotaxis … (10 ng/mL)” value in assay [1] (setting [4]) turned out to be 36 ± 6%. The “activity on chemotaxis induced” value in assay [1] is “good activity”.

Take `Cc1ccnc(NC(=O)[C@H](C)c2ccc(CC(C)C)cc2)c1` [R(−)-2-[(4′-isobutyl)phenyl]-N-(4″-methyl-2″-pyridyl)propionamide, reference compound]: in assay [1] (Table 4, IL-8 10 ng/mL), the “% inhibition of chemotaxis … (10 ng/mL)” value is given as −12 ± 2%.

Turning to `CC(C)Cc1ccc([C@@H](C)C(=O)N[C@H](C)C(=O)O)cc1` [Compound 6, (R,R′)-2-[(4′-isobutyl)phenyl]-N-(2″-carboxyethyl)propionamide], in assay [1] (setting [4]), the “% inhibition of chemotaxis … (10 ng/mL)” value was −17 ± 6%. Moreover, in assay [1], the “% inhibition of leucocyte chemotaxis” value was −17 ± 6% and the “activity on chemotaxis induced” value is “inhibitory effect on chemotaxis”.

For `C[C@H](C(=O)O)c1cccc(C(=O)c2ccccc2)c1` [S-ketoprofen], the “TNF-α in the incubation medium” value with TNF-α [3] is 39 ± 5 ng/mL.

For `CC(C)Cc1ccc([C@@H](C)C(N)=O)cc1` [Compound 1, (R)-2-(4-isobutyl-phenyl)-propionamide, reference compound], the “% inhibition of chemotaxis … (10 ng/mL)” value in assay [1] (setting [5]) and in assay [1] (setting [4]) was 57 ± 12% throughout. Moreover, in assay [1], the “activity on chemotaxis induced” value is listed as “active”.

Take `CC(C)Cc1ccc([C@@H](C)C(=O)Nc2ccccc2)cc1` [Compound 9, R(−)-2-(4′-isobutyl)phenyl-N-phenyl propionamide]: in assay [1] (setting [4]), the “% inhibition of chemotaxis … (10 ng/mL)” value is given as 9 ± 10%. For the same compound, the “activity on chemotaxis induced” value in assay [1] is reported as “poor activity”.

As to `CC(C)Cc1ccc([C@@H](C)C(=O)Nc2cccnc2)cc1` [Compound 11, R(−)-2-[(4′-isobutyl)phenyl]-N-(3″-pyridyl)propionamide], in assay [1] (setting [4]), the “% inhibition of chemotaxis … (10 ng/mL)” value worked out at 11 ± 10%. Further, the “activity on chemotaxis induced” value in assay [1] is listed as “poor activity”.

These data come from US7705050B2, “Amides, useful in the inhibition of IL-8-induced chemotaxis of neutrophils” (priority 2000, dated 2010).
